Test results published in patent US20240207353A1, “USE OF PEPTIDE AMIDE COMPOUND IN PREPARATION OF DRUG FOR TREATING PRURITUS” (XIZANG HAISCO PHARMACEUTICAL CO., LTD., priority 2021, published 2024).

What was measured:
[1] = test system: compound 48/80-induced scratching behaviour in mice; assay: Antipruritic effect in mouse models with pruritus induced by compound 48/80, intravenous administration; assay type: in vivo, ICR mice
Experimental: (§1) ICR mice (males) from Beijing Vital River Laboratory Animal Technology Co., Ltd. were randomly grouped, and then administered intravenously with different doses of compound 1 or normal saline. After 15 min, 50 μg of compound 48/80 (Sigma, Cat #: C2313) was injected subcutaneously into the nape of the mice, and the times of scratching of mice within 30 min after injection of compound 48/80 was immediately recorded. The obtained data were processed according to the formula [(times of scratching in solvent control group−times of scratching in administration group)/times of scratching in solvent control group×100] to calculate the inhibition ratio on scratching. Statistical analysis was performed with Graphpad Prism 8 software, and fitting was performed to obtain the ED50 value.

[2] = test system: serotonin hydrochloride-induced scratching behaviour in rats; assay: Antipruritic effect of single administration in rat models with pruritus induced by serotonin hydrochloride; assay type: in vivo, SD rats; conditions: intravenous
Experimental: SD rats (males) from Beijing Vital River Laboratory Animal Technology Co., Ltd. were randomly grouped, and then administered intravenously with different doses of compound 1 or normal saline. After 15 min, 10 μL of 2% serotonin hydrochloride (Sigma) was injected intradermally into the nape of the rats, and the times of scratching of rats within 60 min after injection of serotonin hydrochloride was immediately recorded. The obtained data were processed according to the formula [(times of scratching in solvent control group−times of scratching in administration group)/times of scratching in solvent control group×100] to calculate the inhibition ratio on scratching. Statistical analysis was performed with Graphpad Prism 8 software, and fitting was performed to obtain the ED50 value.

[3] = test system: compound 48/80-induced scratching behaviour in mice; assay: Antipruritic effect by nasal drip in mouse models with pruritus induced by compound 48/80; assay type: in vivo, ICR mice
Experimental: as §1, with “then” for “then administered intravenously with”, “saline were administered by nasal drip.” for “saline.”

[4] = test system: haemodialysis subjects with pruritus; assay: Phase II clinical study of safety, pharmacokinetics and efficacy in haemodialysis subjects; assay type: in vivo, human
Experimental: For compound 1, a multi-centre, randomized, double-blind, placebo-controlled phase II clinical trial for evaluating the safety, pharmacokinetics and efficacy of compound 1 injection in haemodialysis subjects was performed. This study was divided into two phases.
Phase I was a dose-escalation, randomized, double-blind, placebo-controlled study of multiple intravenous administration within 1 week in haemodialysis subjects, in which 40 haemodialysis subjects were scheduled to be enrolled into 4 dose groups: 0.05 μg/kg, 0.15 μg/kg, 0.30 μg/kg and 0.80 μg/kg, with 10 subjects in each group (including 2 subjects in placebo group), and the experimental drug was administered 3 times in each dose group on D1, D3 and D5, respectively.
Phase II was a randomized, double-blind, placebo-controlled study of administration for 12 weeks in haemodialysis subjects with moderate or more severe pruritus. According to the results of phase I study, two dose groups (0.3 μg/kg and 0.6 μg/kg) and a placebo group as control were selected for phase II study, in which 90 haemodialysis subjects with moderate or more severe pruritus were scheduled to be enrolled and assigned to the above-mentioned three groups according to a ratio of 1:1:1, with 30 subjects scheduled to be enrolled in each group, and compound 1 injection or placebo was administered, respectively.

[5] = 15 min before compound 48/80 s.c., scratching within 30 min
[6] = 15 min before serotonin hydrochloride intradermal, scratching within 60 min
[7] = maintenance haemodialysis, dose of 0.05 μg/kg to 0.80 μg/kg
[8] = maintenance haemodialysis, multiple times a week for consecutive 12 weeks
[9] = phase I, 0.05-0.80 μg/kg i.v. on D1, D3, D5, each group after treatment
[10] = phase II, 0.3 and 0.6 μg/kg, 12 weeks, each group after treatment

CC(=O)N1CC2(CCN(C(=O)[C@@H](CCCCN)NC(=O)[C@@H](CC(C)C)NC(=O)[C@@H](Cc3ccccc3)NC(=O)[C@H](N)Cc3ccccc3)CC2)C1 [Compound 1, (2R)—N-[(1R)-1-(2-acetyl-2,7-diazaspiro[3.5]nonane-7-carbonyl)-5-amino-pentyl]-2-[[(2R)-2-[[(2R)-2-amino-3-phenyl-propionyl]amino]-3-phenylpropionyl]amino]-4-methyl-pentanamide]
inhibition of compound 48/80-induced scratching behaviour [1]: inhibited the compound 48/80-induced scratching behaviour in mice in a dose-dependent manner
ED50 value (inhibition ratio on scratching) [1, 5]: 0.09 mg/kg
antipruritic effective dose [1, 5]: 0.03 mg/kg
inhibition of serotonin hydrochloride-induced scratching behaviour [2]: inhibited the serotonin hydrochloride-induced scratching behaviour in rats in a dose-dependent manner
ED50 value (inhibition ratio on scratching) [2, 6]: 0.03 mg/kg
antipruritic effective dose [2, 6]: 0.03 mg/kg
inhibition of compound 48/80-induced scratching behaviour [3]: inhibited the compound 48/80-induced scratching behaviour in mice in a dose-dependent manner
ED50 value (inhibition ratio on scratching) [3, 5]: 2.72 mg/kg
antipruritic effective dose [3, 5]: 0.3 mg/kg
improvement compared to the placebo group ([4]; 0.30 μg/kg group): more significant improvement
maintenance of therapeutic effects after discontinuation ([4]; 0.30 μg/kg group): good maintenance of therapeutic effects after discontinuation
safety [4, 7]: generally safe
serious adverse events related to the experimental drug [4, 7]: no serious adverse events related to the experimental drug
withdrawal tendency after discontinuation [4, 7]: no obvious withdrawal tendency after discontinuation
overall quality of life [4, 8]: improved
pruritus symptoms in patients with chronic kidney diseases [4, 8]: could be effectively relieved
NRS scores [4, 9]: all decreased compared to baseline
total score of Skindex-16 scale [4, 9]: decreased
NRS scores [4, 10]: all decreased compared to baseline
total score and dimension scores of 5-D scale [4, 10]: all decreased compared to baseline
total score and dimension scores of Skindex-16 scale [4, 10]: all decreased compared to baseline
